Read-outs that look alike come from different tables or passages of the source.
How the values were obtained:
TNF-α [1] = assay: TNF-α levels in PBMC under Con A stimulation (ELISA); type: cell-based, human; conditions: for Percentage TNF-α levels compared to 100% untreated cells under Con A stimulation: PBMC; for concentration of TNF-α in Con A stimulated cells: text summary of Table 3, concentration not stated
Procedure: (§1) 1) Isolation, Culture and Treatment of Peripheral Blood Mononuclear Cells (PBMC) Blood was collected in 6 ml vacutainers (green cap). Blood was processed within 2 h of collection. Materials used: Non-coagulated blood; FCS; RPMI-1640 media supplemented with L-Gln and P/S; PBS; sterile tips and pipettes; Sterile 15 ml Falcon; Sterile V-bottom 96-well plates with lids; Neubauer chamber; Trypan Blue solution; 70% IPA solution; Accuspin-Histopaque tubes (Sigma, A7054) Procedure: • 1. Dilute samples 1:1 in sterile PBS; • 2. Add 30 ml of diluted blood into an Accuspin-Histopaque tube (Sigma, A7054); • 3. Centrifuge at 800 rcf 15min at room temperature (RT); • 4. After centrifugation, the red blood cells will remain at the bottom below the frit. The monocytes (PBMC) will be present on a layer above the frit, with the plasma on top; • 5. Collect the PBMC layer with a pipette into a fresh 15 ml Falcon tube and top up to 15 ml of PBS; • 6. Centrifuge at 250 rcf 10 min at RT; • 7. Discard the supernatant, flick the pellet and add another 10 ml of PBS; • 8. Centrifuge at 250 rcf 10 min at RT; • 9. Repeat steps 7 and 8; • 10. […] Count cells and make a 4×10^6 cell/ml suspension in complete medium. Add 100 μl of cell suspension per well in a V-bottom 96-well plate. Then add 50 μl of stimulant or vehicle in complete media, and 50 μl of drug or vehicle in complete media. Incubate the cells for 24 h at 37° C. 5% CO2; • 12. After incubation, take 60 μl of cell supernatant to measure IFNγ and TNFα by ELISA (OptEIA human IFNγ, cat No. 555142 and human TNF, Cat No. 555212) following manufacturer's instructions (BD Biosciences); The two mitogens that the inventors used to stimulate lymphocytes, and therefore assess immune function, were lipopolysaccharide (LPS) and Concanavalin A (Con A). LPS acts on B cells but not T cells, whereas Con A acts on T cells but not B cells. The effects of two embodiments of the compound represented by formula I, i.e. dobutamine (referred to in the tables as BC1021) and ritodrine (BC1023), on the levels of IFN-γ and TNF-α were investigated in LPS and Con A stimulated assays. Peripheral Blood Mononuclear Cells (PMBC) were independently administered with each mitogen, LPS or Con A, and then treated with either dobutamine or ritodrine. Control experiments were conducted in which no LPS or Con A was added, such that any effect on the levels of IFN-γ and TNF-α could be directly attributed to the presence of the test compound, dobutamine or ritodrine.

TNF-α [2] = assay: TNF-α levels in PBMC under LPS stimulation (ELISA); type: cell-based, human; conditions: for Percentage TNF-α levels compared to 100% untreated cells under LPS stimulation: PBMC; for concentration of TNF-α in LPS stimulated cells: text summary of Table 2, concentration not stated
Procedure: 1) Isolation, Culture and Treatment of Peripheral Blood Mononuclear Cells (PBMC) Blood was collected in 6 ml vacutainers (green cap). Blood was processed within 2 h of collection. Materials used: Non-coagulated blood; FCS; RPMI-1640 media supplemented with L-Gln and P/S; PBS; sterile tips and pipettes; Sterile 15 ml Falcon; Sterile V-bottom 96-well plates with lids; Neubauer chamber; Trypan Blue solution; 70% IPA solution; Accuspin-Histopaque tubes (Sigma, A7054) Procedure: • 1. Dilute samples 1:1 in sterile PBS; • 2. Add 30 ml of diluted blood into an Accuspin-Histopaque tube (Sigma, A7054); • 3. Centrifuge at 800 rcf 15min at room temperature (RT); • 4. After centrifugation, the red blood cells will remain at the bottom below the frit. The monocytes (PBMC) will be present on a layer above the frit, with the plasma on top; • 5. Collect the PBMC layer with a pipette into a fresh 15 ml Falcon tube and top up to 15 ml of PBS; • 6. Centrifuge at 250 rcf 10 min at RT; • 7. Discard the supernatant, flick the pellet and add another 10 ml of PBS; • 8. Centrifuge at 250 rcf 10 min at RT; • 9. Repeat steps 7 and 8; • 10. […] Count cells and make a 4×10^6 cell/ml suspension in complete medium. Add 100 μl of cell suspension per well in a V-bottom 96-well plate. Then add 50 μl of stimulant or vehicle in complete media, and 50 μl of drug or vehicle in complete media. Incubate the cells for 24 h at 37° C. 5% CO2; • 12. After incubation, take 60 μl of cell supernatant to measure IFNγ and TNFα by ELISA (OptEIA human IFNγ, cat No. 555142 and human TNF, Cat No. 555212) following manufacturer's instructions (BD Biosciences); The two mitogens that the inventors used to stimulate lymphocytes, and therefore assess immune function, were lipopolysaccharide (LPS) and Concanavalin A (Con A). LPS acts on B cells but not T cells, whereas Con A acts on T cells but not B cells. The effects of two embodiments of the compound represented by formula I, i.e. dobutamine (referred to in the tables as BC1021) and ritodrine (BC1023), on the levels of IFN-γ and TNF-α were investigated in LPS and Con A stimulated assays. Peripheral Blood Mononuclear Cells (PMBC) were independently administered with each mitogen, LPS or Con A, and then treated with either dobutamine or ritodrine. Control experiments were conducted in which no LPS or Con A was added, such that any effect on the levels of IFN-γ and TNF-α could be directly attributed to the presence of the test compound, dobutamine or ritodrine. The values in the Tables are expressed as the percentage value of the LPS only control. […] Standard deviation values (s.d.) are given underneath each value of expressed IFN-γ levels.

IFN-γ = IFN-γ levels in PBMC under Con A stimulation (ELISA); type: cell-based, human; conditions: for Percentage IFN-γ levels compared to 100% untreated cells under Con A stimulation: PBMC; for concentration of IFN-γ in Con A stimulated cells: text summary of Table 4, concentration not stated
Procedure: as §1

Con A-stimulated cells = assay: Cell cytotoxicity compared to digitonin under Con A stimulation
From the text: Digitonin is a glycoside obtained from Digitalis purpurea, which acts as a detergent, and effectively water-solubilizes lipids in the plasma membrane. Therefore, digitonin can be used to permeabilise cell membranes. The inventors therefore investigated digitonin's cell membrane-permeabilising effects on Con A-stimulated cells to determine the cytotoxic effects of ritodrine or dobutamine.

[3] = compound only (no Con A), 10 μM
[4] = compound only (no Con A), 100 μM

Compound	Percentage TNF-α levels compared to 100% untreated cells under Con A stimulation (TNF-α [1]; + Con A, compound 1 μM, 24 h) [%]	Percentage TNF-α levels compared to 100% untreated cells under Con A stimulation (TNF-α [1]; + Con A, compound 10 μM, 24 h) [%]	Percentage TNF-α levels compared to 100% untreated cells under Con A stimulation (TNF-α [1]; + Con A, compound 100 μM, 24 h) [%]	Percentage TNF-α levels compared to 100% untreated cells under Con A stimulation (TNF-α [1]; compound only (no Con A), 1 μM) [%]	Percentage TNF-α levels compared to 100% untreated cells under Con A stimulation (TNF-α [1]; [3]) [%]	Percentage TNF-α levels compared to 100% untreated cells under Con A stimulation (TNF-α [1]; [4]) [%]	concentration of TNF-α in Con A stimulated cells (TNF-α [1])	Percentage TNF-α levels compared to 100% untreated cells under LPS stimulation (TNF-α [2]; + LPS, compound 1 μM, 24 h) [%]	Percentage TNF-α levels compared to 100% untreated cells under LPS stimulation (TNF-α [2]; + LPS, compound 10 μM, 24 h) [%]	Percentage TNF-α levels compared to 100% untreated cells under LPS stimulation (TNF-α [2]; + LPS, compound 100 μM, 24 h) [%]	Percentage TNF-α levels compared to 100% untreated cells under LPS stimulation (TNF-α [2]; compound only (no LPS), 1 μM) [%]	Percentage TNF-α levels compared to 100% untreated cells under LPS stimulation (TNF-α [2]; compound only (no LPS), 10 μM) [%]	Percentage TNF-α levels compared to 100% untreated cells under LPS stimulation (TNF-α [2]; compound only (no LPS), 100 μM) [%]	concentration of TNF-α in LPS stimulated cells (TNF-α [2])	Percentage IFN-γ levels compared to 100% untreated cells under Con A stimulation (IFN-γ; + Con A, compound 1 μM, 24 h) [%]	Percentage IFN-γ levels compared to 100% untreated cells under Con A stimulation (IFN-γ; + Con A, compound 10 μM, 24 h) [%]	Percentage IFN-γ levels compared to 100% untreated cells under Con A stimulation (IFN-γ; + Con A, compound 100 μM, 24 h) [%]	Percentage IFN-γ levels compared to 100% untreated cells under Con A stimulation (IFN-γ; compound only (no Con A), 1 μM) [%]	Percentage IFN-γ levels compared to 100% untreated cells under Con A stimulation (IFN-γ; [3]) [%]	Percentage IFN-γ levels compared to 100% untreated cells under Con A stimulation (IFN-γ; [4]) [%]	also measured
CC(NCCc1ccc(O)cc1)C(O)c1ccc(O)cc1 (stereo not drawn) [BC1023, ritodrine]	103.92	106.20	104.93	−5.94	−24.69	−14.80	decreased	62.12	85.01	85.74	−29.75	0.74	−56.57	decreased	39.93	34.25	41.69	−0.86	−1.52	−1.87	concentration of IFN-γ in Con A stimulated cells (IFN-γ): decreased; cytotoxicity rates in treated samples (Con A-stimulated cells): lower; Percentage cytotoxicity compared to 100% for digitonin under Con A stimulation (Con A-stimulated cells; human, 1 μM): 44.54%; Percentage cytotoxicity compared to 100% for digitonin under Con A stimulation (Con A-stimulated cells; human, 10 μM): 43.63%; Percentage cytotoxicity compared to 100% for digitonin under Con A stimulation (Con A-stimulated cells; human, 100 μM): 43.81%
CC(CCc1ccc(O)cc1)NCCc1ccc(O)c(O)c1 (stereo not drawn) [BC1021, dobutamine]	103.05	102.36	−33.95	−35.44	−33.21	−42.84	decreased	91.20	84.79	81.41	−80.18	−145.07	−151.15	decreased	63.40	32.77	−1.80	−2.61	−2.51	−3.26	Percentage IFN-γ levels compared to 100% untreated cells under Con A stimulation (IFN-γ; + Con A, compound 100 μM, 24 h, listed as dobutamine): significant effect in decreasing; concentration of IFN-γ in Con A stimulated cells (IFN-γ): decreased; Percentage cytotoxicity compared to 100% for digitonin under Con A stimulation (Con A-stimulated cells; compound only (no Con A), 1 μM): 47.71%; Percentage cytotoxicity compared to 100% for digitonin under Con A stimulation (Con A-stimulated cells; [3]): 42.94%; Percentage cytotoxicity compared to 100% for digitonin under Con A stimulation (Con A-stimulated cells; [4]): 32.33%; cytotoxicity rates in treated samples (Con A-stimulated cells; text summary of Table 6, vast majority of cases): lower

Source: US20120283334A1, “Treatment of Viral Infections” (Biocopea, Ltd., priority 2009, published 2012)
